Assay results: article PMC9927415, “Tyrosine Kinase Inhibitors Display Potent Activity against Cryptosporidium parvum” (Microbiology Spectrum, 2022)

Assays:
Assay in all cases: KINOMEscan competitive binding, whole panel
panel of 203 kinases [1] = target: T1, panel of 203 kinases (Homo sapiens, UniProt P53671); settings: 10 µM, n=1; kinase LIMK2; read-out: Percent inhibition LIMK2
T1 construct: purchased DiscoverX (KINOMEscan)
How it was run: (§1)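 T7 phage-fused kinases; compound displaces immobilized ATP-site probe ligand; bead-bound kinase quantified; % inhibition reported.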

panel of 203 kinases [2] = target: T2, panel of 203 kinases (Homo sapiens, UniProt P15056); settings: 10 µM, n=1; kinase BRAF; read-out: Percent inhibition BRAF
T2 construct: purchased DiscoverX (KINOMEscan)
How it was run: as §1

panel of 203 kinases [3] = target: T3, panel of 203 kinases (Homo sapiens, UniProt Q15375); settings: 10 µM, n=1; kinase EPHA7; read-out: Percent inhibition EPHA7
T3 construct: purchased DiscoverX (KINOMEscan)
How it was run: as §1

panel of 203 kinases [4] = target: T4, panel of 203 kinases (Homo sapiens, UniProt Q13554); settings: 10 µM, n=1; kinase CAMK2B; read-out: Percent inhibition CAMK2B
T4 construct: purchased DiscoverX (KINOMEscan)
How it was run: as §1

panel of 203 kinases [5] = target: T5, panel of 203 kinases (Homo sapiens, UniProt P29323); settings: 10 µM, n=1; kinase EPHB2; read-out: Percent inhibition EPHB2
T5 construct: purchased DiscoverX (KINOMEscan)
T5 sequence (P29323 19-1055): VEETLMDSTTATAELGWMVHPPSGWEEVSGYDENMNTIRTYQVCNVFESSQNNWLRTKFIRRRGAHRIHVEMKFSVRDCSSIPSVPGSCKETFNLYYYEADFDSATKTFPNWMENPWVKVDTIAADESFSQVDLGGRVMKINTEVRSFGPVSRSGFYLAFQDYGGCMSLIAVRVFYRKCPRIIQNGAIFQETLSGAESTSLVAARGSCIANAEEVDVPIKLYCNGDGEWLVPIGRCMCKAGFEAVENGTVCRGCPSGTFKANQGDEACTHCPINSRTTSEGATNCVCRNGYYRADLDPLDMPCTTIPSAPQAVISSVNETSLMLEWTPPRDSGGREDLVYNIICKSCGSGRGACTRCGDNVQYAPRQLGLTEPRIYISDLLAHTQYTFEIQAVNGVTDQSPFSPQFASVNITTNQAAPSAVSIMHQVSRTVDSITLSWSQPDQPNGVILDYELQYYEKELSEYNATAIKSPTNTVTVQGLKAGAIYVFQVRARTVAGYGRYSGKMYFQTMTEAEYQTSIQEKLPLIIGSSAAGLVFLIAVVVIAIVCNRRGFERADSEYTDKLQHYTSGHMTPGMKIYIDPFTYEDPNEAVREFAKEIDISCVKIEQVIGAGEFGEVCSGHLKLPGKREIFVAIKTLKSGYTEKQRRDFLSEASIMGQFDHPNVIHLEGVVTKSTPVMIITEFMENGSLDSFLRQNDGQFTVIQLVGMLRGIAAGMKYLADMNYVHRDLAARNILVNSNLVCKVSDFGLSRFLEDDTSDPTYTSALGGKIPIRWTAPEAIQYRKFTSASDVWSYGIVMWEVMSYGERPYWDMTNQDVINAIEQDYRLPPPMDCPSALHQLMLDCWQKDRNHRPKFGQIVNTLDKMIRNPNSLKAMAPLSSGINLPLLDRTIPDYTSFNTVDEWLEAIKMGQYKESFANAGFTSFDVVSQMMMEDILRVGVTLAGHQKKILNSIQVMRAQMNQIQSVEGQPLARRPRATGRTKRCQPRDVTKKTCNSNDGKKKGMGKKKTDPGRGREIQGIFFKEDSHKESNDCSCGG
How it was run: as §1

panel of 203 kinases [6] = target: T6, panel of 203 kinases (Homo sapiens, UniProt Q9Y4K4); settings: 10 µM, n=1; kinase MAP4K5; read-out: Percent inhibition MAP4K5
T6 construct: purchased DiscoverX (KINOMEscan)
How it was run: as §1

panel of 203 kinases [7] = target: T7, panel of 203 kinases (Homo sapiens, UniProt Q92918); settings: 10 µM, n=1; kinase MAP4K1; read-out: Percent inhibition MAP4K1
T7 construct: purchased DiscoverX (KINOMEscan)
How it was run: as §1

panel of 203 kinases [8] = target: T8, panel of 203 kinases (Homo sapiens, UniProt P37023); settings: 10 µM, n=1; kinase ACVRL1; read-out: Percent inhibition ACVRL1
T8 construct: purchased DiscoverX (KINOMEscan)
How it was run: as §1

panel of 203 kinases [9] = target: T9, panel of 203 kinases (Homo sapiens, UniProt P21709); settings: 10 µM, n=1; kinase EPHA1; read-out: Percent inhibition EPHA1
T9 construct: purchased DiscoverX (KINOMEscan)
T9 sequence (P21709 26-976): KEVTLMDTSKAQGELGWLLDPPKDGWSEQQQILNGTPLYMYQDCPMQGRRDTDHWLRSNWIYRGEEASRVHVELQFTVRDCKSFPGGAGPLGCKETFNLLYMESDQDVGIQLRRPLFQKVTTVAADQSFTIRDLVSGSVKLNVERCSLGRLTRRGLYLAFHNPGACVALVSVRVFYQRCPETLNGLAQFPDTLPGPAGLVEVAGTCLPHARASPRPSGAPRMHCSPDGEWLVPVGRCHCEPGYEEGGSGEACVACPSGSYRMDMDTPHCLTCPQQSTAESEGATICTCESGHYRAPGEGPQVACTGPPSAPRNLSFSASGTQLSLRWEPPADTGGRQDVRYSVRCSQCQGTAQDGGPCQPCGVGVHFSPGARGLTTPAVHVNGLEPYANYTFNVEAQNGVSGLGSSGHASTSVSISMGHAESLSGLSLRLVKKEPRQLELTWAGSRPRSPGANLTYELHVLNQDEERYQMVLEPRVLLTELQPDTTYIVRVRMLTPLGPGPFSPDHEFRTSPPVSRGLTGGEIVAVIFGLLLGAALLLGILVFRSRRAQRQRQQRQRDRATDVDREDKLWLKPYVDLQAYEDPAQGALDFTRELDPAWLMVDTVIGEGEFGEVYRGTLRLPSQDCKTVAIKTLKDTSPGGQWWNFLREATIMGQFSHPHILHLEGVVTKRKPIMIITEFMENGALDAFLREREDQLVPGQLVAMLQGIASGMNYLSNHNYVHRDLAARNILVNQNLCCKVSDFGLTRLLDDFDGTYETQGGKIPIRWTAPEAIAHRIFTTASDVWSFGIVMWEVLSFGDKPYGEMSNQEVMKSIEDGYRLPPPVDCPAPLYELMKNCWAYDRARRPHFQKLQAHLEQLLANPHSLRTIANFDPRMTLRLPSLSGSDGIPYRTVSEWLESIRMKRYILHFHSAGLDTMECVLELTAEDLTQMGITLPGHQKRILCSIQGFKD
How it was run: as §1

panel of 203 kinases [10] = target: T10, panel of 203 kinases (Homo sapiens, UniProt Q9P0L2); settings: 10 µM, n=1; kinase MARK1; read-out: Percent inhibition MARK1
T10 construct: purchased DiscoverX (KINOMEscan)
How it was run: as §1

T1 sequence (P53671 whole entry): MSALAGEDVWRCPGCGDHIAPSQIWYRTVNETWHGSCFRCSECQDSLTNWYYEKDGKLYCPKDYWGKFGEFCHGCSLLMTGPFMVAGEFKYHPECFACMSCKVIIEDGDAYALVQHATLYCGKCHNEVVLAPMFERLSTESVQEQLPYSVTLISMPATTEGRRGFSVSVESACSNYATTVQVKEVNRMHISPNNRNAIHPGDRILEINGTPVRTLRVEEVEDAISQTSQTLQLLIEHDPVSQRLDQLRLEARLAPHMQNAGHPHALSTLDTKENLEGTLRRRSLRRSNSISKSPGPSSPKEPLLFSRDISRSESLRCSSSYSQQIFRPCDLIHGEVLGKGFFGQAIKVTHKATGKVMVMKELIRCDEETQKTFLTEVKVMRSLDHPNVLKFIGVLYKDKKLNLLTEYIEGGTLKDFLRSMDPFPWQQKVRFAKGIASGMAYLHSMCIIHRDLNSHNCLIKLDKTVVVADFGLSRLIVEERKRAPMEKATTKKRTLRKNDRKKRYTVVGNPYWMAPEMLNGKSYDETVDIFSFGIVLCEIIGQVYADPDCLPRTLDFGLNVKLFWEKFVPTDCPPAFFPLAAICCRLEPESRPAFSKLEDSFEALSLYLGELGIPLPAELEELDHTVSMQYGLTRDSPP
T7 sequence (Q92918 whole entry): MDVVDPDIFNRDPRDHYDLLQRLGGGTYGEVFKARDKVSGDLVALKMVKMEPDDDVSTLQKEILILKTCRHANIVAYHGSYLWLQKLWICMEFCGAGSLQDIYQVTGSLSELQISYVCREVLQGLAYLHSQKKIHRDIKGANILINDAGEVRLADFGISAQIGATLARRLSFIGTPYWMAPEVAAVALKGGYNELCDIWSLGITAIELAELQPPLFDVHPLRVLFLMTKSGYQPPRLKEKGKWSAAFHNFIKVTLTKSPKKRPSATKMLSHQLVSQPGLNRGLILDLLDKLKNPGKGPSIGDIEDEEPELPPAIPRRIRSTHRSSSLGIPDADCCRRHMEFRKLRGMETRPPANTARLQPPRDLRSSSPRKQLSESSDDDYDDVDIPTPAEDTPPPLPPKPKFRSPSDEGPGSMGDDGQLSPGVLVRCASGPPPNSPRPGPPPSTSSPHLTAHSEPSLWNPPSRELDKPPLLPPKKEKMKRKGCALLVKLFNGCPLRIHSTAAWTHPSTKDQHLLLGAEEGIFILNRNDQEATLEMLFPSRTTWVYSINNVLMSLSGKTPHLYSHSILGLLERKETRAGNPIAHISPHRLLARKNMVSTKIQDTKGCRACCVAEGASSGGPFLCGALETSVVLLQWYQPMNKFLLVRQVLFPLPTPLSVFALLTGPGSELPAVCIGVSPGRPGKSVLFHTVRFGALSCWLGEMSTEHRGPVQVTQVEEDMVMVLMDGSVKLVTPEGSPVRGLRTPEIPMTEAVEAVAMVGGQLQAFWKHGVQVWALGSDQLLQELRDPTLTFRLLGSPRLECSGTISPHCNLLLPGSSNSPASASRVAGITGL
T8 sequence (P37023 22-503): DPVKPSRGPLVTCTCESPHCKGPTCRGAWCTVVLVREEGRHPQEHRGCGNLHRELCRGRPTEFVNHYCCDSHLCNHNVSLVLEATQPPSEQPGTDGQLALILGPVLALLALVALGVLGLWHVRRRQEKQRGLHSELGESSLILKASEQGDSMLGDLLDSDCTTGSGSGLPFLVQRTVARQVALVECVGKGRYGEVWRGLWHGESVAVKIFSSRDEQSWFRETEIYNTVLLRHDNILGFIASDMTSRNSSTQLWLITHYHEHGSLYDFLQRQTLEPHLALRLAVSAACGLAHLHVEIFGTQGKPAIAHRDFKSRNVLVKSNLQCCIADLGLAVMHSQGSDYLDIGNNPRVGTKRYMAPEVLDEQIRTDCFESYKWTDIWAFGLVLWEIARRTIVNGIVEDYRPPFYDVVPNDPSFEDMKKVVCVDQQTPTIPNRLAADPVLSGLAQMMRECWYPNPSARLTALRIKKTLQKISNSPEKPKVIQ
T3 sequence (Q15375 28-998): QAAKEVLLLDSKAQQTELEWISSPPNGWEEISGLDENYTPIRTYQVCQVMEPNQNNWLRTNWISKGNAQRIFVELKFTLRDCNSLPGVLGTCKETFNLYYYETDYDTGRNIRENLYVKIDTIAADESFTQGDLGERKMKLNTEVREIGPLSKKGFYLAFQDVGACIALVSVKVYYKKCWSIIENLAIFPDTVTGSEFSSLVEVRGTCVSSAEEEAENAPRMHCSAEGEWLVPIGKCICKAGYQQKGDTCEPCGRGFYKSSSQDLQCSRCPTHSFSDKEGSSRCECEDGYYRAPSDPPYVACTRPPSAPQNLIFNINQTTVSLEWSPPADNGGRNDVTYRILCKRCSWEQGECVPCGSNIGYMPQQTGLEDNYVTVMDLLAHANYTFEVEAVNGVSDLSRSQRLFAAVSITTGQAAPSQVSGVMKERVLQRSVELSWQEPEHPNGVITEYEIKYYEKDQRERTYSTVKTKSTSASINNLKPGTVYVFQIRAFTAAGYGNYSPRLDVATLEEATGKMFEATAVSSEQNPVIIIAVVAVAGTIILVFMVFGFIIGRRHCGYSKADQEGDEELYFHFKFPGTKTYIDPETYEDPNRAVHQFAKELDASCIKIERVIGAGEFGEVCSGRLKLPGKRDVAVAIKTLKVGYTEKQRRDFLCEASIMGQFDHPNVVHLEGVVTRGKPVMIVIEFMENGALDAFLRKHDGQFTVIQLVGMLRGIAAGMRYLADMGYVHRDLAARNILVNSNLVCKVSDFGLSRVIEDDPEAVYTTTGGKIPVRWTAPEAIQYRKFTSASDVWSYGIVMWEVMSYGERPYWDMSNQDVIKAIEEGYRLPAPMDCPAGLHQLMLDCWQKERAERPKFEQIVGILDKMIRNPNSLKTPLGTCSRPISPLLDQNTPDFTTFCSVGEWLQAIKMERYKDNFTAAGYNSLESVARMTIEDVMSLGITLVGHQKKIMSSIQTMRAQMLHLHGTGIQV
T6 sequence (Q9Y4K4 whole entry): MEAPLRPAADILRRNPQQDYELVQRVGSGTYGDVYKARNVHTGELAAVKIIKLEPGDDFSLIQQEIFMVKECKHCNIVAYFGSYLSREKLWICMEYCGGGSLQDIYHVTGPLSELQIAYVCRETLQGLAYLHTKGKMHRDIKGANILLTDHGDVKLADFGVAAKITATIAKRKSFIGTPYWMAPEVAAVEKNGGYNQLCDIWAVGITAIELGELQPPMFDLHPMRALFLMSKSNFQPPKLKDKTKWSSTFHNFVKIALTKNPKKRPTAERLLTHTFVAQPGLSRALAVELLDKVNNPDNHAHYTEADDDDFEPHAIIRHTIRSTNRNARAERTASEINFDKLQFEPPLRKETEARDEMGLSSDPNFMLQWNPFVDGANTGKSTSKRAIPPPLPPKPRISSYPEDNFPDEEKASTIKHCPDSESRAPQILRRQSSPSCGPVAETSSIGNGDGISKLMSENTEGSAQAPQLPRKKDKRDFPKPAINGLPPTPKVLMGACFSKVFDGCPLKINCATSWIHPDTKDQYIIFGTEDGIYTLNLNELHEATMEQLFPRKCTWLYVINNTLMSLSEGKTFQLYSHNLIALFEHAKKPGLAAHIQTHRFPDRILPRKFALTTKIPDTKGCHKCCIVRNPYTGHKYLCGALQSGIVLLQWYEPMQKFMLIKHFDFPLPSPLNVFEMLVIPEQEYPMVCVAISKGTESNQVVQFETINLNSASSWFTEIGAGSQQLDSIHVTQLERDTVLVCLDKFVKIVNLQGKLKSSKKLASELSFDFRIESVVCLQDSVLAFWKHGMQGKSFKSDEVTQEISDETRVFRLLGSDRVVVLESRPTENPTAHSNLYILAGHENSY
T2 sequence (P15056 whole entry): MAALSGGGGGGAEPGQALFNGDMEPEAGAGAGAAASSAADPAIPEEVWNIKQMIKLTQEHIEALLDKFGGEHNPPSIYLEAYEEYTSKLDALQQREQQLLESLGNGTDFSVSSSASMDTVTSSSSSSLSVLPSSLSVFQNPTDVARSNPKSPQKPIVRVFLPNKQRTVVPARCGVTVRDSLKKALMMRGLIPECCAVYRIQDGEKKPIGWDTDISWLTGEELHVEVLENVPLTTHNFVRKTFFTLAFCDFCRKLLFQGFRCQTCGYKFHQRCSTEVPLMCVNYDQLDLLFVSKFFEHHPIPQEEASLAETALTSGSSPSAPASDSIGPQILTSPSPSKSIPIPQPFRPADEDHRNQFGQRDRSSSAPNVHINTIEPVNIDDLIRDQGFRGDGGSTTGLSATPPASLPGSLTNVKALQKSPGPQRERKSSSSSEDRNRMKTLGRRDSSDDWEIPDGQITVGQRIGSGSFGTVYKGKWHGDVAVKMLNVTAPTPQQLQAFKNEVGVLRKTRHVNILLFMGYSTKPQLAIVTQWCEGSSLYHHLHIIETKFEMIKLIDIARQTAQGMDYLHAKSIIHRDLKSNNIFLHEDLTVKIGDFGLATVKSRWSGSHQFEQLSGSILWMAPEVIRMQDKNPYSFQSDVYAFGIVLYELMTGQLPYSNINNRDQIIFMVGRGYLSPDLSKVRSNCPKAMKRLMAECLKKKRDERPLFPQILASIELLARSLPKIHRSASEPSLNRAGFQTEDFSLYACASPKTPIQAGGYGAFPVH

Compound	inhibition at 10 µM (panel of 203 kinases [1]) [%]	inhibition at 10 µM (panel of 203 kinases [2]) [%]	inhibition at 10 µM (panel of 203 kinases [3]) [%]	inhibition at 10 µM (panel of 203 kinases [4]) [%]	inhibition at 10 µM (panel of 203 kinases [5]) [%]	inhibition at 10 µM (panel of 203 kinases [6]) [%]	inhibition at 10 µM (panel of 203 kinases [7]) [%]	inhibition at 10 µM (panel of 203 kinases [8]) [%]	inhibition at 10 µM (panel of 203 kinases [9]) [%]	inhibition at 10 µM (panel of 203 kinases [10]) [%]
Cc1ccc(O)cc1Nc1ccnc(Nc2cccc(C(N)=O)c2)n1 [Compound 3]	96.6	0	84	0	100	94.6	83.9	99.7	100	0
Cc1ccc(O)cc1N(C)c1ccnc(Nc2cccc(S(N)(=O)=O)c2)n1 [Compound 4]	96	0	100	0	100	99.1	99.5	100	100	0
CN1CCN(c2ccc(Nc3nccc(-c4cnn5ncccc45)n3)cc2C#N)CC1 [Compound 1]	100	0	67.3	96.5	0	93	99.5	85	94.3	85.3
Clc1ccc(Nc2ncc(-c3ccccc3)s2)cc1 [Compound 10]	0	0	0	0	0	0	0	0	0	0
Nc1ncc2c(-c3ccncc3)c[nH]c2n1 [Compound 11]	0	0	0	85.7	62.6	0	0	0	0	0
Fc1cccc(COc2ccc(Nc3ncnc4c3CN(CCN3CCOCC3)CC4)cc2Cl)c1 [Compound 6]	0	0	0	0	0	0	0	0	0	0
COc1ccc(Nc2nccc(-c3cnn4ncccc34)n2)cc1 [Compound 2]	88	99.6	74.6	73.9	0	0	0	0	92.5	0
C[C@@H](Oc1cc(-c2cnc3ccccn23)sc1C(N)=O)c1ccccc1Cl [Compound 8]	0	0	0	0	0	82.7	0	0	0	0
COc1cc(Nc2nccc(-c3sc(N)nc3-c3cccc(NC(=O)c4c(F)cccc4F)c3)n2)cc(OC)c1OC [Compound 7]	100	100	0	0	99.4	99.9	96.3	0	100	79
c1ccc(COc2cccc(-c3ccnc4[nH]ccc34)c2)cc1 [Compound 9]	0	0	0	0	0	0	0	0	0	0
